Experimental findings from patent publication US20250375454A1, “METHODS FOR TREATING HEPATOCELLULAR CARCINOMA” (THE HONG KONG POLYTECHNIC UNIVERSITY, priority 2024, published 2025) are described below.

Molecules are shown by their SMILES.

In the data set the test system is PLC/PRF/5 tumor-bearing mice. The data set can be described thus: PLC/PRF/5 tumor-bearing mouse model. Format: in vivo. As to the method: Male BALB/c nude mice (6-8 weeks old) were obtained from the Centralized Animal Facilities at the Hong Kong Polytechnic University. All animals were bred and housed under specific pathogen-free conditions, with access to sterile food and water. Environmental conditions were strictly controlled, with temperature maintained at 23±2° C., relative humidity between 30%-70%, and a 12-hour light/dark cycle. Mice were group-housed in accordance with institutional guidelines for recommended stocking density. The animal experiments were conducted according to institutional guidelines, and the experimental procedures were approved by the PolyU Animal Experimentation Ethics Committee (Ref. No. 19-20/57-ABCT-R-STUDENT).
PLC/PRF/5 cells (5×10^5) were suspended in 100 μL PBS with Matrigel (1:1 ratio) and injected into the right back of nude mice. Small tumors (<70 mm^3) were formed two weeks after cell inoculation. Mice were then randomized into the vehicle control group, ZAK-I-57 treated groups (15 mg/kg and 30 mg/kg), or sorafenib (30 mg/kg) groups. Mice were administered 200 μL of vehicle water and drugs by oral gavage daily for three weeks. Tumor size was measured twice a week, and tumor volumes were calculated using the formula [(length×width×depth)/2 mm^3] while each mouse was weighed. At the end of the experiment, the mice were sacrificed, and the tumors and organs were collected for further experiments.
The Huh7 cells and tumor tissues were lysed on ice using the lysis buffer. Protein concentration was quantified using Bradford assay (Bio-Rad, Hercules, CA, USA). Equivalent amounts of protein (25-50 μg) were loaded onto 10% sodium dodecyl sulfate-polyacrylamide gel electrophoresis (SDS-PAGE) and transferred to polyvinylidene fluoride (PVDF) membranes. Membranes were blocked with 5% non-fat milk in Tris-buffered saline Tween 20 (TBST) for an hour. The blots were incubated with primary antibodies (EGFR (4267S, Cell signaling technology, MA, USA), c-Myc (5605S, Cell signaling technology, MA, USA), Bax (2772S, Cell signaling technology, MA, USA), Bcl-2 (sc-7382, Santa Cruze, TX, USA), ERBB2 (2165S, Cell signaling technology, MA, USA), and α-tubulin (62204, Invitrogen, MA, USA), 1:1000) at 4° C. overnight. Subsequently, the membranes were washed thrice (15 min each) with TBST solution and incubated for 1 h with secondary horseradish peroxidase-conjugated antibodies (NA934 and NA931, Cytiva, MA, USA, 1:5000). Blots were then detected using an ECL kit and photographed using a ChemiDoc Imaging System (Bio-Rad, MA, USA). The bands were quantified using the ImageJ software (NIH, USA). The intensities of the bands for each protein sample were normalized to those of α-tubulin (internal standard protein). Quantitative data are presented as a fold change of untreated control.
Tumors were fixed in 4% formalin, embedded in paraffin, and sectioned at […] thickness for IHC staining. Ki-67 primary antibody (ab16667, Abcam, MA, USA) and anti-mouse IgG recombinant secondary antibody (7056S, Cell Signaling Technology, MA, USA) were used for IHC staining. Hemotoxin (Invitrogen, MA, USA) was used to stain nuclei. The number of positively stained cells in Ki-67-stained slides was evaluated using ImageJ software (NIH, MD, USA).
H&E staining was performed on histological sections of organs (heart, spleen, kidney, liver, and lung) to examine the toxicity of ZAK-I-57 in PLC/PRF/5 tumor-bearing and PDTX model mice. Briefly, the histological slides were deparaffinized using 100% xylene (v/v). The slides were then washed several times with ethanol solutions of various concentrations (70-100%, v/v) and immersed in hematoxylin for 5 min, followed by a quick dip in acidic alcohol. Next, the slides were immersed in Scott's tap water for 3 min and in 1% eosin for 30 s. Finally, the slides were dehydrated using ethanol solutions of various concentrations (70%-100%, v/v) and 100% xylene (v/v) and mounted using a mounting medium.

Where [1] appears, read: ZAK-I-57 15 and 30 mg/kg, vs vehicle control and sorafenib 30 mg/kg.
Setting [2] is: heart, liver, spleen, lung, kidney, ZAK-I-57 15 and 30 mg/kg, sorafenib 30 mg/kg.

For the compound `O=c1oc(-c2ccc3ccccc3c2)nc2cc([N+](=O)[O-])ccc12` [ZAK-I-57, 2-(naphthalen-2-yl)-7-nitro-4H-3,1-benzoxazin-4-one], under “30 mg/kg”, the “Ki-67 suppression compared with sorafenib” value is “significantly greater Ki-67 suppression than sorafenib”; the “tumor cell density and necrosis (H&E staining)” value is “substantial decrease in cell density and necrosis”; the “tumor volume reduction compared with sorafenib” value was “outperforming sorafenib”; the “tumor weight reduction compared with sorafenib” value was “outperforming sorafenib”. Besides, where the note is “30 mg/kg, vs control”, the “Bax expression in tumor (western blot)” value is given as “increase in the expression”, the “Bcl-2 expression in tumor (western blot)” value is given as “significantly attenuated”, the “EGFR expression in tumor (western blot)” value is reported as “significantly attenuated” and the “c-Myc expression in tumor (western blot)” value was “significantly attenuated”. Further, under “15 and 30 mg/kg”, the “Ki-67 expression in tumor (IHC)” value was “inhibition of Ki-67 expression” and the tumor growth inhibition entry is recorded as “significantly inhibited tumor growth”. Also, the “tumor cellularity (H&E staining)” value (ZAK-I-57 15 and 30 mg/kg, sorafenib 30 mg/kg, vs vehicle control) is “marked reduction in tumor cellularity”. For the same compound, under setting [1], the tumor volume result is “marked reduction” and the tumor weight entry is given as “marked reduction”. Under setting [2], the “gross anatomical examination of vital organs” value is recorded as “maintained tissue morphology comparable to the vehicle control” and the “histopathology of vital organs (H&E)” value is listed as “no histological abnormalities were observed”. For the same compound, for the setting “oral gavage daily, 20 days, ZAK-I-57 15 and 30 mg/kg, sorafenib 30 mg/kg”, the body weight entry is on record as “no significant changes”.
